Test results reported in article PMC8277517, “Anticolon Cancer Properties of Pyrazole Derivatives Acting through Xanthine Oxidase Inhibition” (Journal of Oncology, 2021).
Read-outs that look alike come from different tables or passages of the source.

What was measured:
[1] = tested on: MCF-7, HepG2, and HCT-116 cell lines; set-up: method as in doi:10.2174/1570178617666200320104923; details: read-out: IC50 inhibition of cell proliferation (range over cell lines); cited from earlier work
[2] = tested on: HCT-116 colorectal carcinoma cell line; set-up: method as in doi:10.2174/1570178617666200320104923; details: Figure 1 design strategy, earlier lead; cited from earlier work
[3] = tested on: MCF-7 breast adenocarcinoma cell line; set-up: method as in doi:10.2174/1570178617666200320104923; details: Figure 1 design strategy, earlier lead; cited from earlier work
[4] = tested on: HepG2 hepatocellular carcinoma cell line; experiment: Sulforhodamine B (SRB) cytotoxicity assay, HepG2; format: cell-based; details: Homo sapiens, 72 h
Experimental: (§1) Human hepatocellular carcinoma cell line (HepG-2, ATCC HB-8065), colorectal adenocarcinoma cell line (HCT-116, ATCC CCL-247), and breast adenocarcinoma cell line (MCF-7, ATCC HTB-22) were obtained from the American type culture collection (ATCC). Cells were maintained in RPMI-1640 supplemented with (100 μg/ml) penicillin (100 units/ml) and heat-inactivated fetal bovine serum (10% v/v) in a humidified, 5% (v/v) CO2 atmosphere at 37°C [13].
(§2) The cytotoxicity of the different compounds was tested against human tumor cells using the sulforhodamine B assay (SRB). Healthy growing cells were cultured in a 96-well tissue culture plate (3000 cells/well) for 24 hours to allow attachment of the cells to the plate before treatment with the tested compounds. […] Triplicate wells were incubated with different concentrations for 72 h and subsequently fixed with TCA (10% w/v) for 1 h at 4°C. […] After drying overnight, the SRB-stained cells were dissolved with tris-HCl and the color intensity was measured in a microplate reader at 540 nm.
(§3) The SRB assay is the “gold-standard” assay and is extensively used in the high-throughput screening program at the National Cancer Institute (NCI), USA. The SRB uses an aminoxanthene dye, which readily stains the cells through binding with the basic amino acids of cellular proteins. […]

[5] = tested on: MCF-7 breast adenocarcinoma cell line; experiment: Sulforhodamine B (SRB) cytotoxicity assay, MCF-7; format: cell-based; details: Homo sapiens, MCF7, 72 h
Experimental: as §1, §2, §3

[6] = tested on: HCT-116 colorectal carcinoma cell line; experiment: Sulforhodamine B (SRB) cytotoxicity assay, HCT-116; format: cell-based; details: Homo sapiens, 72 h
Experimental: as §1, §2, §3

CC1=NN(C(=O)c2ccncc2)C(=O)C1=NNc1ccc([N+](=O)[O-])cc1 [1-isonicotinoyl-3-methyl-4-[2-(4-nitrophenyl)hydrazono]-2-pyrazolin-5-one]
IC50 [1]: 0.2 to 3.4 µM

COc1ccc(/N=N/c2c(C)nn(C(=O)c3ccncc3)c2C)cc1 [Aryldiazenyl pyrazoles (ADP)]
IC50 [2]: 61.3 µM

CC1=NN(C(=O)c2ccncc2)C(=O)/C1=N/Nc1ccc([N+](=O)[O-])cc1 [Arylhydrazono pyrazoles (AHP)]
IC50 [3]: 0.2 µM

COc1cccc2c1C(=O)c1c(O)c3c(c(O)c1C2=O)C[C@@](O)(C(=O)CO)C[C@@H]3O[C@H]1C[C@H](N)[C@H](O)[C@H](C)O1 [Doxorubicin]
IC50 [4]: 3.9 ± 0.06 µM | IC50 [5]: 4.7 ± 0.08 µM | IC50 [6]: 4.4 ± 0.04 µM
